This passage reports IC50 results from patent US20250215029A1 (Recludix Pharma, Inc., priority 2022, published 2025).

Assay [1] concerns the target T1, Recombinant STAT3 protein (STAT3 (G127-I722)) (Homo sapiens, UniProt P40763).
T1 construct: Recombinant STAT3 protein (STAT3 (G127-I722))
As to the kind of experiment: STAT3 Fluorescence Polarization (FP) Assay. It is filed as binding. Particulars: probe 5-FAM-GpYLPQTV-NH2 2 nM, 45-minute incubation. The method in brief: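 Displacement of a fluorescent phosphotyrosine peptide (5-FAM-GpYLPQTV-NH2, 2 nM) from 25 nM recombinant STAT3 G127-I722 was monitored by FP after 45 min at room temperature.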

The target of assay [2] is T2, Recombinant STAT6 protein (STAT6 (W123-T658)) (Homo sapiens, UniProt P42226).
T2 construct: Recombinant STAT6 protein (STAT6 (W123-T658))
T2 sequence (P42226 123-658): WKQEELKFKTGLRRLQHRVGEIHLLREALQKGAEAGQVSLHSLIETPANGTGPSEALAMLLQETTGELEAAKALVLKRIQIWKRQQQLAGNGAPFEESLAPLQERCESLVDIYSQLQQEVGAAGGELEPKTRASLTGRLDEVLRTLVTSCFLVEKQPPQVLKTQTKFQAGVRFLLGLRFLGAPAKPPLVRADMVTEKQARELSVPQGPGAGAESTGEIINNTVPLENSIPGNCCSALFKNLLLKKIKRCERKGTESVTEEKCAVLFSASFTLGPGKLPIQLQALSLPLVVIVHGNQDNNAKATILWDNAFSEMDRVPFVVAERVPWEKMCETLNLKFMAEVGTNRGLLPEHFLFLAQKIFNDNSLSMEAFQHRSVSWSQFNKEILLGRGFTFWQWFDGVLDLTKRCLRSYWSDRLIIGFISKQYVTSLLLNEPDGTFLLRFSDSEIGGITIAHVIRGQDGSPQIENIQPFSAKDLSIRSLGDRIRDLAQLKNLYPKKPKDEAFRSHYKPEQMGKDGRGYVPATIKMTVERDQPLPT
As to the kind of experiment: STAT6 Fluorescence Polarization (FP) Assay. Type of assay: binding. Particulars: probe 5-FAM-Ap[…]-NH2 2 nM, 45-minute incubation. The method, boiled down:
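Protein-probe mix (250 nM STAT6 W123-T658, 2 nM 5-FAM-pTyr peptide) in 10 mM HEPES pH 7.4, 50 mM NaCl, 1 mM EDTA, 0.05% Tween 20, 2 mM DTT; added to compound dilution series, 1% DMSO final; 45 min RT; FP read; IC50 via nonlinear regression.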

[3] abbreviates: STAT3 (G127-I722) 25 nM, read-out: STAT3 (FP assay IC50 class).
[4] abbreviates: STAT6 (W123-T658) 250 nM, read-out: STAT6 (FP assay IC50 class).
Setting [5] is: STAT3 25 nM, read-out: STAT3 (FP assay IC50).
Setting [6] is: STAT6 250 nM, read-out: STAT6 (FP assay IC50).

Read-outs that look alike come from different tables or passages of the source.

T1 sequence (P40763 127-722): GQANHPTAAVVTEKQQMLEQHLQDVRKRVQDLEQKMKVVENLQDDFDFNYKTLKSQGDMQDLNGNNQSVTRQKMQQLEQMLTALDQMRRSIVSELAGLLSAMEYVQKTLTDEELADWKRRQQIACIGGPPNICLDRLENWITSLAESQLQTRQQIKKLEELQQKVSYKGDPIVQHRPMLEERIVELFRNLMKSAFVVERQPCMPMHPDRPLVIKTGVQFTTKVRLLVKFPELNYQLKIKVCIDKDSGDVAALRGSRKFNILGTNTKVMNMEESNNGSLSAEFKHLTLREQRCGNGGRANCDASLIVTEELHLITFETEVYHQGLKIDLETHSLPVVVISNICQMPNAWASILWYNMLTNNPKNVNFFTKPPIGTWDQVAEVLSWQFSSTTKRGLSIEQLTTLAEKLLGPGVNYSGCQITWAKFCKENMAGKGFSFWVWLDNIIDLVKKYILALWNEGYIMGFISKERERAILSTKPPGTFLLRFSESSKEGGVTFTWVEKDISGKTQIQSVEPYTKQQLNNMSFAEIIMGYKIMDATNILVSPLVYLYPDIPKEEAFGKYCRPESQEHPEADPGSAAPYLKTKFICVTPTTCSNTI

For `Cn1cnc2ncc(CNC(=O)[C@@H]3CC[C@@H]4CCC[C@H](NC(=O)c5cc6cc(C(F)(F)P(=O)(O)O)ccc6s5)C(=O)N43)cc21` [Compound 1120, (difluoro(2-(((3S,6S,9aS)-3-(((1-methyl-1H-imidazo[4,5-b]pyridin-6-yl)methyl)carbamoyl)-5-oxooctahydro-1H-pyrrolo[1,2-a]azepin-6-yl)carbamoyl)benzo[b]thiophen-5-yl)methyl)phosphonic acid], the IC50 lay in the range of 100 to 1000 nM in assay [1] (setting [3]) and 0.3 to 3 µM in assay [2] (setting [4]).

For the molecule `C[C@@H]1C[C@H]2CC[C@@H](C(=O)N3CC(c4cnccc4N(C)C)C3)N2C(=O)[C@@H](NC(=O)c2cc3cc(CP(=O)(O)O)ccc3s2)C1` [Compound 639, ((2-(((3S,6S,8S,9aR)-3-(3-(4-(dimethylamino)pyridin-3-yl)azetidine-1-carbonyl)-8-methyl-5-oxooctahydro-1H-pyrrolo[1,2-a]azepin-6-yl)carbamoyl)benzo [b]thiophen-5-yl)methyl) phosphonic acid], the figures for the IC50 in assay [1] (setting [3]) and in assay [2] (setting [4]) were below 100 nM and 3 to 30 µM, respectively.

As to `COC1CN(c2ccncc2C2CN(C(=O)[C@@H]3CC[C@@H]4CCC[C@H](NC(=O)c5cc6cc([C@@H](F)P(=O)(O)O)ccc6s5)C(=O)N43)C2)C1` [Compound 859, ((S)-fluoro(2-(((3S,6S,9aS)-3-(3-(4-(3-methoxyazetidin-1-yl)pyridin-3-yl)azetidine-1-carbonyl)-5-oxooctahydro-1H-pyrrolo[1,2-a]azepin-6-yl)carbamoyl)benzo [b]thiophen-5-yl)methyl) phosphonic acid], the IC50 is below 100 nM in assay [1] (setting [3]) and 0.3 to 3 µM in assay [2] (setting [4]).

As to `N=S1(=O)CCC(C2CN(C(=O)[C@@H]3CC[C@@H]4CCCC[C@H](NC(=O)c5cc6cc(C(F)(F)P(=O)(O)O)ccc6s5)C(=O)N43)C2)CC1` (stereo partly drawn) [Compound 61, (difluoro(2-(((3S,6S,10aS)-3-(3-(1-imino-1-oxidohexahydro-1l6-thiopyran-4-yl)azetidine-1-carbonyl)-5-oxodecahydropyrrolo [1,2-a]azocin-6-yl)carbamoyl)benzo[b]thiophen-5-yl)methyl) phosphonic acid], the figures for the IC50 in assay [1] (setting [5]) and in assay [2] (setting [6]) were 100 to 1000 nM and 0.3 to 3 µM, respectively.

Turning to `Cn1ccc(C2CN(C(=O)[C@@H]3CC[C@@H]4CCCC[C@H](NC(=O)c5cc6cc(C(F)(F)P(=O)(O)O)ccc6s5)C(=O)N43)C2)n1` [Compound 65, (difluoro(2-(((3S,6S,10S)-3-(3-(1-methyl-1H-pyrazol-3-yl)azetidine-1-carbonyl)-5-oxodecahydropyrrolo [1,2-a]azocin-6-yl)carbamoyl)benzo[b]thiophen-5-yl)methyl) phosphonic acid], the values for the half-inhibitory concentration (IC50) in assay [1] (setting [5]) and in assay [2] (setting [6]) were 100 to 1000 nM and 0.3 to 3 µM, respectively.

For the molecule `O=C(N[C@H]1CCCC[C@H]2CC[C@@H](C(=O)NCc3cc[nH]c(=O)c3)N2C1=O)c1cc2cc(C(F)(F)P(=O)(O)O)ccc2s1` [Compound 49, (difluoro(2-(((3S,6S,10aS)-5-oxo-3-(((2-oxo-1,2-dihydropyridin-4-yl)methyl)carbamoyl)deca-hydropyrrolo[1,2-a]azocin-6-yl)carbamoyl)benzo[b]thiophen-5-yl)methyl) phosphonic acid], the half-inhibitory concentration (IC50) in assay [1] (setting [5]) lay within 100 to 1000 nM; in assay [2] (setting [6]), 3 to 30 µM.

For `COc1ccncc1C1CN(C(=O)[C@@H]2CC[C@@H]3CCCC[C@H](NC(=O)c4cc5cc(C(F)P(=O)(O)O)ccc5s4)C(=O)N32)C1` (stereo partly drawn) [Compound 236, (fluoro(2-(((3S,6S,10aS)-3-(3-(4-methoxypyridin-3-yl)azetidine-1-carbonyl)-5-oxodecahydropyrrolo[1,2-a]azocin-6-yl)carbamoyl)benzo[b]thiophen-5-yl)methyl)phosphonic acid], the figures for the IC50 in assay [1] (setting [3]) and in assay [2] (setting [4]) were below 100 nM and 3 to 30 µM, respectively.

With `COc1cc(C)c(C2CN(C(=O)[C@@H]3CC[C@@H]4CCC[C@H](NC(=O)c5cc6cc(CP(=O)(O)O)ccc6s5)C(=O)N43)C2)cn1` [Compound 511, ((2-(((3S,6S,9aS)-3-(3-(6-methoxy-4-methylpyridin-3-yl)azetidine-1-carbonyl)-5-oxooctahydro-1H-pyrrolo[1,2-a]azepin-6-yl)carbamoyl)benzo[b]thiophen-5-yl)methyl)phosphonic acid], the 50% inhibitory concentration (IC50) was in the range of 1000 to 10000 nM in assay [1] (setting [3]) and 3 to 30 µM in assay [2] (setting [4]).

Take `Cn1ncc(F)c1C1CN(C(=O)[C@@H]2CC[C@@H]3CCC[C@H](NC(=O)c4cc5cc(C(F)P(=O)(O)O)ccc5s4)C(=O)N32)C1` (stereo partly drawn) [Compound 751, (fluoro(2-(((3S,6S,9aS)-3-(3-(4-fluoro-1-methyl-1H-pyrazol-5-yl)azetidine-1-carbonyl)-5-oxooctahydro-1H-pyrrolo[1,2-a]azepin-6-yl)carbamoyl)benzo [b]thiophen-5-yl)methyl) phosphonic acid]: the figures for the IC50 in assay [1] (setting [3]) and in assay [2] (setting [4]) were 100 to 1000 nM and 3 to 30 µM, respectively.

For `N#C[C@H]1[C@H](c2ccccc2)CN(C(=O)[C@@H]2CC[C@@H]3CCC[C@H](NC(=O)c4cc5cc(CP(=O)(O)O)ccc5s4)C(=O)N32)C12CC2` [Compound 922, ((2-(((3S,6S,9aS)-3-((6R,7S)-7-cyano-6-phenyl-4-azaspiro[2.4]heptane-4-carbonyl)-5-oxooctahydro-1H-pyrrolo[1,2-a]azepin-6-yl)carbamoyl)benzo [b]thiophen-5-yl)methyl) phosphonic acid], the IC50 is 1000 to 10000 nM in assay [1] (setting [3]) and 0.3 to 3 µM in assay [2] (setting [4]).

Turning to `COc1ccncc1[C@@H]1CCN(C(=O)[C@@H]2CC[C@@H]3CCC[C@H](NC(=O)c4cc5cc(C(F)P(=O)(O)O)ccc5s4)C(=O)N32)C1` (stereo partly drawn) [Compound 706, (fluoro(2-(((3S,6S,9aS)-3-((S)-3-(4-methoxypyridin-3-yl)pyrrolidine-1-carbonyl)-5-oxooctahydro-1H-pyrrolo[1,2-a]azepin-6-yl)carbamoyl)benzo [b]thiophen-5-yl)methyl) phosphonic acid], the 50% inhibitory concentration (IC50) in assay [1] (setting [3]) was below 100 nM; in assay [2] (setting [4]), 0.3 to 3 µM.

Take `O=C(N[C@H]1CCC[C@H]2CC[C@@H](C(=O)N3CC(c4ccccn4)C3)N2C1=O)c1cc2cc(C(F)(F)P(=O)(O)O)ccc2s1` [Compound 108, (difluoro(2-(((3S,6S,9aS)-5-oxo-3-(3-(pyridin-2-yl)azetidine-1-carbonyl)octahydro-1H-pyrrolo[1,2-a]azepin-6-yl)carbamoyl)benzo[b]thiophen-5-yl)methyl) phosphonic acid]: the 50% inhibitory concentration (IC50) was below 100 nM in assay [1] (setting [5]) and 0.3 to 3 µM in assay [2] (setting [6]).

Turning to `COCCOC1(c2ccccn2)CN(C(=O)[C@@H]2CC[C@@H]3CCCC[C@H](NC(=O)c4cc5cc(C(F)P(=O)(O)O)ccc5s4)C(=O)N32)C1` (stereo partly drawn) [Compound 615, (fluoro(2-(((3S,6S,10aS)-3-(3-(2-methoxyethoxy)-3-(pyridin-2-yl)azetidine-1-carbonyl)-5-oxodecahydropyrrolo[1,2-a]azocin-6-yl)carbamoyl)benzo [b]thiophen-5-yl)methyl) phosphonic acid], the results for the concentration for half-maximal inhibition (IC50) in assay [1] (setting [3]) and in assay [2] (setting [4]) were below 100 nM and 3 to 30 µM, respectively.

Regarding `O=C(N[C@H]1CCC[C@H]2CC[C@@H](C(=O)N3CC(c4cccnc4C(F)F)C3)N2C1=O)c1cc2cc(CP(=O)(O)O)ccc2s1` [Compound 562, ((2-(((3S,6S,9aS)-3-(3-(2-(difluoromethyl)pyridin-3-yl)azetidine-1-carbonyl)-5-oxooctahydro-1H-pyrrolo[1,2-a]azepin-6-yl)carbamoyl)benzo[b]thiophen-5-yl)methyl)phosphonic acid], the IC50 in assay [1] (setting [3]) lay within 100 to 1000 nM; in assay [2] (setting [4]) it was 3 to 30 µM.

Turning to `O=C(N[C@H]1CCCC[C@H]2CC[C@@H](C(=O)N3Cc4cn(C5CC5)nc4C3)N2C1=O)c1cc2cc(C(F)(F)P(=O)(O)O)ccc2s1` [Compound 794, ((2-(((3S,6S,10aS)-3-(2-cyclopropyl-2,4,5,6-tetrahydropyrrolo[3,4-c]pyrazole-5-carbonyl)-5-oxodecahydropyrrolo [1,2-a]azocin-6-yl)carbamoyl)benzo [b]thiophen-5-yl)difluoromethyl) phosphonic acid], the IC50 in assay [1] (setting [3]) was 100 to 1000 nM; in assay [2] (setting [4]), 3 to 30 µM.

Consider `CC(c1ccc2sc(C(=O)N[C@H]3CCC[C@H]4CC[C@@H](C(=O)N5CC(c6cccnc6)C5)N4C3=O)cc2c1)P(=O)(O)O` (stereo partly drawn) [Compound 896, (1-(2-(((3S,6S,9aS)-5-oxo-3-(3-(pyridin-3-yl)azetidine-1-carbonyl)octahydro-1H-pyrrolo[1,2-a]azepin-6-yl)carbamoyl)benzo [b]thiophen-5-yl)ethyl) phosphonic acid], for which the concentration for half-maximal inhibition (IC50) in assay [1] (setting [3]) was in the range of 100 to 1000 nM; in assay [2] (setting [4]) it was 3 to 30 µM.
